Data: patent US7256207B2, “Inhibitors of cathepsin S” (IRM LLC, priority 2003, dated 2007)

What was measured:
Assay type in all cases: biochemical
[1] = molecular target: Cathepsin S (Homo sapiens, UniProt P25774); assay: Cathepsin S inhibition assay, fluorogenic peptide substrate; conditions: Cathepsin S inhibition constant; pH5.5, 20 minutes preincubation at room temperature; read-out: Ki Cat. S
Description: (§1) The optimal substrate for cathepsin S, acetyl-histidine-proline-valine-lysine-amino carbamoyl coumarin, was identified from screening a combinatorial library of fluorogenic peptide substrates (Harris, J. L., B. J. Backes, et al. Proc Natl Acad Sci U S A 2000, 97(14), 7754-9). Kinetic measurements are performed in a total reaction volume of 30 μl in 384-well microtiter plates. Cathepsin S, at a final concentration of 0.3-3 nM (active site), is incubated with the compounds at twelve varying concentrations in a buffer containing 100 mM NaAc (pH5.5), 1 mM EDTA, 100 mM NaCl, 0.01% Brij-35 for 20 minutes at room temperature. Control reactions in the absence of inhibitor are performed in replicates of 24. The reactions are initiated by adding the substrate, acetyl-histidine-proline-valine-lysine-amino carbamoyl coumarin, to a final concentration of 50 μM. The rate of substrate hydrolysis is measured by monitoring the increase in fluorescence at an excitation wavelength of 380 nm and an emission wavelength of 450 nm that results from cleavage of the aniline bond in the substrate by the enzyme. The apparent inhibition constants for the compounds are determined from the enzyme progress curves (Kuzmic, P., K. C. Elrod, et al. Anal Biochem 2000, 286(1), 45-50) and are then used to calculate the inhibition constants for competitive inhibitors.

[2] = molecular target: T1, Cathepsin K (Homo sapiens, UniProt P43235); assay: Cathepsin K inhibition assay, fluorogenic peptide substrate (selectivity for Cat. S over Cat. K); conditions: ratio of cathepsin K inhibition constant to cathepsin S inhibition constant
T1 sequence (P43235 115-329): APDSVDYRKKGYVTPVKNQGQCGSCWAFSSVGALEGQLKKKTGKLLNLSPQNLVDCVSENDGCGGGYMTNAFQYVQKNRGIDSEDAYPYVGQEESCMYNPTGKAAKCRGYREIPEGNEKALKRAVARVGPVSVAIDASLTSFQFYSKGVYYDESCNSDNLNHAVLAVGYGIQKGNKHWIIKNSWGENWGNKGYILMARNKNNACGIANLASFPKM
Description: as §1, with “cathepsin K, acetyl-lysine-histidine-proline-lysine-amino” for “cathepsin S, acetyl-histidine-proline-valine-lysine-amino”, “Cathepsin K,” for “Cathepsin S,”, “of 3.5” for “of 0.3-3”, “substrate, acetyl-lysine-histidine-proline-lysine-amino” for “substrate, acetyl-histidine-proline-valine-lysine-amino”, “of 40” for “of 50”
(§2) Selectivity for cathepsin S in the presence of cathepsin isozymes was determined by the ratio of the cathepsin isozyme inhibition constant of a compound of the present invention to the cathepsin S inhibition constant of the same compound. Preferred compounds of the present invention selective for cathepsin S have ratios of greater than 10. More preferred compounds of the present invention selective for cathepsin S have ratios of greater than 100. Most preferred compounds of the present invention selective for cathepsin S have ratios of greater than 1000.

[3] = molecular target: Cathepsin L (Homo sapiens, UniProt P07711); assay: Cathepsin L inhibition assay, fluorogenic peptide substrate (selectivity for Cat. S over Cat. L); conditions: ratio of cathepsin L inhibition constant to cathepsin S inhibition constant
Sequence of Cathepsin L (P07711 114-333, species assumed): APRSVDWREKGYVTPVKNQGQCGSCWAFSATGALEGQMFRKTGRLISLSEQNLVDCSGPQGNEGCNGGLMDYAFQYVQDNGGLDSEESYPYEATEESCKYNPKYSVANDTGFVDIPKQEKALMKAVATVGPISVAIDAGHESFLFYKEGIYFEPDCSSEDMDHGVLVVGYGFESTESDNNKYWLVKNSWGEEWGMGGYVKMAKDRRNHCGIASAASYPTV
Description: as §1, with “cathepsin L, acetyl-histidine-lysine-phenylalanine-lysine-amino” for “cathepsin S, acetyl-histidine-proline-valine-lysine-amino”, “Cathepsin L,” for “Cathepsin S,”, “of 0.1” for “of 0.3-3”, “substrate, acetyl-histidine-lysine-phenylalanine-lysine-amino” for “substrate, acetyl-histidine-proline-valine-lysine-amino”, “of 20” for “of 50”
as §2

[4] = molecular target: Cathepsin B (Homo sapiens, UniProt P07858); assay: Cathepsin B inhibition assay, fluorogenic peptide substrate (selectivity for Cat. S over Cat. B); conditions: ratio of cathepsin B inhibition constant to cathepsin S inhibition constant
Description: as §1, with “B,” for “S,”, “1.5” for “0.3-3”, “[…].” for “50 μM.”
as §2

Sequence of Cathepsin S (P25774 115-331, species assumed): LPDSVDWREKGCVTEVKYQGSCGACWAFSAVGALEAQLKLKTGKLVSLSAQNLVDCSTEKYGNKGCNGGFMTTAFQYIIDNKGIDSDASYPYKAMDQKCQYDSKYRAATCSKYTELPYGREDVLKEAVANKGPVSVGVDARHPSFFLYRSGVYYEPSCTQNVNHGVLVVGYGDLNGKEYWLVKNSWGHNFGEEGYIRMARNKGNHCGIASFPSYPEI

SMILES	Ki [1]	Selectivity for Cat. S over Cat. K [2]	Selectivity for Cat. S over Cat. L [3]	Selectivity for Cat. S over Cat. B [4]
C[C@@H](CNc1ccc(OC(F)(F)F)cc1)NC(=O)O[C@@H](CC1CCCC1)Cn1cnc2cc(Cl)c(Cl)cc21 [Example 10, 1-(S)-Cyclopentylmethyl-2-(5,6-dichloro-benzimidazol-1-yl)-ethyl [2-(4-trifluoromethoxy-phenylamino)-1-(S)-methyl-ethyl]carbamate]	< 100 nM	+ (+, >10)	+ (+, >10)	+++ (+++, >1000)
CC(C)(C)C(Cn1cnc2cc(Cl)c(Cl)cc21)OC(=O)N[C@@H](CO)CN1CCc2cc(F)ccc21 (mixture of isomers) [Example 3, 1-(5,6-Dichloro-benzimidazol-1-ylmethyl)-2,2-dimethyl-propyl [2-(5-fluoro-2,3-dihydro-indol-1-yl)-1-(R)-hydroxymethyl-ethyl]carbamate]	< 100 nM	+ (+, >10)	− (−, <10)	+ (+, >10)
CC(C)(C)C[C@@H](Cn1cnc2ccccc21)OC(=O)N[C@@H](CO)CN1CCc2cc(F)ccc21 [Example 12, 1-(S)-(Benzimidazol-1-ylmethyl)-3,3-dimethyl-butyl [2-(5-fluoro-2,3-dihydro-indol-1-yl)-1-(R)-hydroxymethyl-ethyl]carbamate]	< 100 nM	− (−, <10)	++ (++, >100)	+++ (+++, >1000)
C[C@@H](CN1CC(C)(C)c2cc(F)ccc21)NC(=O)O[C@H](Cn1cnc2ccccc21)CC(C)(C)C [Example 11, 1-(S)-(Benzimidazol-1-ylmethyl-3,3-dimethyl)-butyl [2-(5-fluoro-3,3-dimethyl-2,3-dihydro-indol-1-yl)-1-(S)-methyl-ethyl]carbamate]	< 100 nM	− (−, <10)	++ (++, >100)	+++ (+++, >1000)
C[C@@H](CN1CCc2cc(F)ccc21)NC(=O)O[C@@H](CC1CCCC1)Cn1cnc2ccccc21 [Example 6, 2-(Benzimidazol-1-yl)-1-(S)-cyclopentylmethyl-ethyl [2-(5-fluoro-2,3-dihydro-indol-1-yl)-1-(S)-methyl-ethyl]carbamate]	< 100 nM	+ (+, >10)	++ (++, >100)	+++ (+++, >1000)
C[C@@H](CN1CCc2cc(F)ccc21)NC(=O)O[C@H](CN1CCOCC1)CC(C)(C)C [Example 5, 3,3-Dimethyl-(S)-1-morpholin-4-ylmethyl-butyl [2-(5-fluoro-2,3-dihydro-indol-1-yl)-1-(S)-methyl-ethyl]carbamate]	< 1000 nM	− (−, <10)	++ (++, >100)	++ (++, >100)
C[C@@H](CNc1ccc(OC(F)F)cc1)NC(=O)O[C@@H](CC1CCCC1)Cn1cnc2cc(Cl)c(Cl)cc21 [Example 8, 1-(S)-Cyclopentylmethyl-2-(5,6-dichloro-benzimidazol-1-yl)-ethyl [2-(4-difluoromethoxy-phenylamino)-1-(S)-methyl-ethyl]carbamate]	< 1000 nM	+ (+, >10)	++ (++, >100)	+++ (+++, >1000)
C[C@@H](CN1CCc2cc(F)ccc21)NC(=O)O[C@H](Cn1cnc2ccccc21)CC(C)(C)C [Example 4, 1-(S)-(Benzimidazol-1-ylmethyl-3,3-dimethyl)-butyl [2-(5-fluoro-2,3-dihydro-indol-1-yl)-1-(S)-methyl-ethyl]carbamate]	< 100 nM	+ (+, >10)	++ (++, >100)	+++ (+++, >1000)
CC(C)(C)C[C@@H](Cn1cnc2cc(Cl)c(Cl)cc21)OC(=O)N[C@@H](CO)CN1CCc2cc(F)ccc21 [Example 2, 1-(S)-(5,6-Dichloro-benzimidazol-1-ylmethyl)-3,3-dimethyl-butyl [2-(5-fluoro-2,3-dihydro-indol-1-yl)-1-(R)-hydroxymethyl-ethyl]carbamate]	< 100 nM	++ (++, >100)	+ (+, >10)	+++ (+++, >1000)
C[C@@H](CNc1ccc(OC(F)F)cc1)NC(=O)O[C@@H](CC1CCCC1)Cn1ccc(C(F)(F)F)n1 [Example 7, 1-(S)-Cyclopentylmethyl-2-(3-trifluoromethyl-pyrazol-1-yl)-ethyl [2-(4-difluoromethoxy-phenylamino)-1-(S)-methyl-ethyl]carbamate]	< 1000 nM	+ (+, >10)	++ (++, >100)	++ (++, >100)
C[C@@H](CN1CCc2cc(F)ccc21)NC(=O)O[C@@H](CC1CCCC1)Cn1cnc2cc(Cl)c(Cl)cc21 [Example 9, 1-(S)-cyclopentylmethyl-2-(5,6-dichloro-benzimidazol-1-yl)-ethyl [2-(5-fluoro-2,3-dihydro-indol-1-yl)-1-(S)-methyl-ethyl]carbamate]	< 100 nM	+ (+, >10)	+ (+, >10)	+++ (+++, >1000)
